# Measured values taken from article PMC4535769, “The Carboxy Terminus of the Ligand Peptide Determines the Stability of the MHC Class I Molecule H-2K^b: A Combined Molecular Dynamics and Experimental Study” (PLoS ONE, 2015).
# pIC50: −log10 of the molar value. Read-outs that look alike come from different tables or passages of the source. Ends that are not written are not given here.
# Experiments:
# [1] = biological target: T1, cell surface K^b, RMA-S cells (Mus musculus, UniProt P01901); test: Brefeldin A (BFA) decay assay, cell surface K^b on RMA-S cells; assay type: cell-based, murine; conditions: 10 μM peptide, 10 μg/ml BFA, 37°C, after four hours, MAb Y3, flow cytometry, n = 3
# T1 construct: endogenous in cells; host or cells: RMA-S cells (TAP-deficient)
# T1 sequence (P01901 22-369): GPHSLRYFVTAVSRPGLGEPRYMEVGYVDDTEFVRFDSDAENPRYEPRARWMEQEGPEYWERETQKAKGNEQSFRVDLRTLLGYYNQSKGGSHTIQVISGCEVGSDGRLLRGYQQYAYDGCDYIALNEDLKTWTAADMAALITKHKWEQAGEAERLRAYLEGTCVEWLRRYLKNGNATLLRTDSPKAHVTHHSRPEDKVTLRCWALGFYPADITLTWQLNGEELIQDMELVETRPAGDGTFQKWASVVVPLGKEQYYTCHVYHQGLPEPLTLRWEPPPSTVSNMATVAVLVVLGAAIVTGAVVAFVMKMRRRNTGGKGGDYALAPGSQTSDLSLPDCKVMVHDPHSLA
# T1 sequence (P01887 21-119 partner): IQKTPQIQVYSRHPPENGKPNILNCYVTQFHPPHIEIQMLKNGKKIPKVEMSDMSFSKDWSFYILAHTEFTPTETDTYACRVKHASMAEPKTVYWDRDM
# Protocol: RMA-S cells were kept overnight at 25°C and at t = 0 treated with 10 μg/ml BFA (Applichem or Alfa Aesar) and with 10 μM peptide and transferred to 37°C for a maximum of 4 hours. At different time points, cells were washed twice with 1x PBS/0.01% NaN3, and cell surface K^b was measured with the MAb Y3 by flow cytometry.
# We then incubated these cells with each peptide and measured the surface residence time of the K^b/peptide complexes by withdrawing aliquots of cells at different times, fixing, and staining with the antibody Y3 followed by flow cytometry (Fig 7, S1I Fig).
# RMA-S cells were incubated overnight at 25°C, then 10 μM peptide (as indicated) was added to the medium, and cells were transferred to 37°C. H-2K^b surface levels were determined at each time point with MAb Y3 and flow cytometry. Averages ± SEM (n = 3) are normalized to initial mean fluorescence intensity (MFI).
# K^b/β2m [2] = biological target: T2, K^b/β2m (Mus musculus, UniProt P01901); test: Competitive binding against SIINFEKTAMRAL measured by fluorescence anisotropy (IC50); set-up: species or system murine
# T2 construct: The TDTF analysis was performed on the luminal domain of K^b, which was produced in E.coli; made in house
# Protocol: Steady state measurements were performed with peptide-free folding reactions of K^b/β2m.
# K^b was folded empty and then incubated with different concentrations of each peptide variant for five minutes. Then, the index peptide SIINFEKTAMRAL (fluorescently labeled on the lysine side chain) was added as a competitor, and the endpoint of its binding was measured by fluorescence anisotropy. From theory curves fitted to the data, we calculated the half-maximal concentration of inhibition of SIINFEKTAMRAL binding (IC50) for each modified peptide (Fig 6, S1F Fig).
# Fig 6 Half-maximal concentration of peptide (IC50) required to inhibit the binding of the high affinity peptide SIINFEKTAMRAL. K^b/β2m complexes derived from the […] (B) structures were folded empty and then incubated for 5 minutes with different concentrations of full-length, truncated, or modified peptides. […] Binding curves (left) are of one representative experiment, and the IC50 values (right) are the average of three experiments.
# K^b/β2m [3] = biological target: T2, K^b/β2m; test: Thermal denaturation by tryptophan fluorescence (TDTF) of K^b/β2m/peptide complexes; assay type: binding, murine; conditions: for ∆GTDTF: derived from TDTF measurements by the two-state, single-transition model
# Protocol: TDTF measurements and Tm determination were performed exactly as described previously [36].
# To test our ranking by experiment, we next used the TDTF (thermal denaturation measured by tryptophan fluorescence) assay to determine the Tm of the K^b/peptide complexes. In this assay, thermal unfolding of the class I molecule is measured by the decrease in fluorescence intensity that occurs when the tryptophan indoles are exposed to the aqueous environment [49, 50]. The TDTF analysis was performed on the luminal domain of K^b, which was produced in E.coli and folded from inclusion bodies as a complex with human β2m and with or without peptide [36]. […] From the Tm values, we derived the ΔΔGTDTF values using the two-state model of denaturation [50, 51].
# The folded heavy chain/β2m/peptide complex was prepared by diluting 200 ‏‏µg of the K^b heavy chain, 200 ‏‏µg of human β2m (both produced in E. coli), and none or 10 µM of peptide into 2 ml of the refolding buffer (100 mM Tris-Cl pH 8, 0.5 M arginine, 2 mM EDTA, 0.5 mM oxidized glutathione, 5 mM reduced glutathione), and the reaction was incubated at 4 °C for 48 hours, then ultracentrifuged at 10^5 ×g for 20 min to sediment aggregates. Concentration of soluble protein was then determined using the Bradford assay.
# The folded complex was measured in PBS (150 mM NaCl, 10 mM phosphate pH 7.4) in a 1 cm × 1 cm cuvette in a Cary Eclipse fluorimeter (Agilent, Waldbronn, Germany) equipped with a Peltier heater and an in-cuvette thermocouple. The sample was heated at 0.30 K/min, and fluorescence values (λex= 290 nm, λem= 345 nm) were recorded every 0.1 K.
# The differentials (F(T+∆T) – F(T))/∆T (with F = fluorescence intensity and ∆T = the temperature interval of recording) were smoothed over 40 points. The minimum of the resulting curve allows a simple optical assessment of the Tm. For display, LOWESS fits [17] to the differentials were performed with GraphPad Prism (GraphPad, La Jolla, CA, USA).
# The binding free energy components were derived from the TDTF measurements according to the two-state, single-transition model [18,19]. […]
# [4] = K^b/β2m folded empty, incubated 5 min with peptide, then 100 nM SIINFEKTAMRAL, fluorescence anisotropy endpoint, average of three experiments, read-out: IC50, inhibition of SIINFEKTAMRAL binding
# T2 sequence (P61769 21-119 partner, one chain of several): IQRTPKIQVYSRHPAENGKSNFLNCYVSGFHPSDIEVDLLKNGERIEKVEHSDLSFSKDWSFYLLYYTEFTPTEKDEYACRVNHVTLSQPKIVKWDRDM
compound,measurement,setting,value
CC(C)C[C@H](NC(=O)[C@H](C)NC(=O)[C@@H]1CCCN1C(=O)[C@H](Cc1ccc(O)cc1)NC(=O)[C@H](CC(N)=O)NC(=O)CNC(=O)[C@@H]1CCCN1C(=O)[C@H](C)NC(=O)[C@@H](N)Cc1ccccc1)C(=O)O [FAPGNYPAL],K^b/peptide complexes remaining on the cell surface,[1],more than 80%
CC[C@H](C)[C@H](NC(=O)[C@@H](NC(=O)[C@@H](N)CO)[C@@H](C)CC)C(=O)N[C@@H](CC(N)=O)C(=O)N[C@@H](Cc1ccccc1)C(=O)N[C@@H](CCC(=O)O)C(=O)N[C@@H](CCCCN)C(=O)N[C@@H](CC(C)C)C(=O)O [reference compound],pIC50,K^b/β2m [2]; [4],6.72
same,K^b/peptide complexes remaining on the cell surface,[1],more than 80%
APGNYPAL [APGNYPAL],pIC50,K^b/β2m [2],6.82
FAPGNYPA,pIC50,K^b/β2m [2],4.74
SIINFEKA,pIC50,K^b/β2m [2]; [4],6.92
SIINFEKG,∆GTDTF,K^b/β2m [3],-92.6 ± 9.2 kcal/mol
SIINFEKL-Cdel,∆GTDTF,K^b/β2m [3],-83.8 ± 8.3 kcal/mol
same,∆∆GTDTF,"K^b/β2m [3]; derived from Tm by the two-state model, relative to the full-length peptide",20.7 kcal/mol
